Measured values reported in US11034735B2, “Hybrid peptide, set of hybrid peptides, composition, uses of the hybrid peptide, method for inducing an immune response and kits” (priority 2017, dated 2021).

Key:
serum of BALB/c mice = assay: Dot-ELISA, synthetic peptides with serum of immunized BALB/c mice; type: in vivo; set-up: key to Peptide Reactivity, Mice serum inoculated with isolated peptides 1 / Peptide Reactivity, Mice serum inoculated with isolated peptides 2 / Peptide Reactivity, Mice serum inoculated with isolated peptides 3 / Peptide Reactivity, Mice serum inoculated with pool / Peptide Reactivity, Mice serum inoculated with Saline (Negative Control) / Reaction with pool of peptides, Mouse 1 serum / Reaction with pool of peptides, Mouse 2 serum / Reaction with pool of peptides, Mouse 3 serum: — = Did not react; X = Reacted; details: for Peptide Reactivity, Mice serum inoculated with pool / Peptide Reactivity, Mice serum inoculated with isolated peptides 1 / Peptide Reactivity, Mice serum inoculated with isolated peptides 2 / Peptide Reactivity, Mice serum inoculated with isolated peptides 3 / Peptide Reactivity, Mice serum inoculated with Saline (Negative Control) / Reaction with pool of peptides, Mouse 1 serum / Reaction with pool of peptides, Mouse 2 serum / Reaction with pool of peptides, Mouse 3 serum: Dot-ELISA; for Peptide Reactivity, Mice serum inoculated with pool / Peptide Reactivity, Mice serum inoculated with isolated peptides 1 / Peptide Reactivity, Mice serum inoculated with isolated peptides 2 / Peptide Reactivity, Mice serum inoculated with isolated peptides 3 / Peptide Reactivity, Mice serum inoculated with Saline (Negative Control) / Dot-ELISA reaction of sera from mice inoculated with hybrid peptides alone / Dot-ELISA reaction of mouse sera inoculated with the peptide pool: peptide as antigen; for Peptide Reactivity, Mice serum inoculated with pool: mice inoculated with pool of all 8 hybrid peptides; for Peptide Reactivity, Mice serum inoculated with isolated peptides 1: serum of mouse 1 inoculated with the same isolated peptide; for Peptide Reactivity, Mice serum inoculated with isolated peptides 1 / Peptide Reactivity, Mice serum inoculated with isolated peptides 2 / Peptide Reactivity, Mice serum inoculated with isolated peptides 3: serum 1:25; for Peptide Reactivity, Mice serum inoculated with isolated peptides 2: serum of mouse 2 inoculated with the same isolated peptide; for Peptide Reactivity, Mice serum inoculated with isolated peptides 3: serum of mouse 3 inoculated with the same isolated peptide; for Peptide Reactivity, Mice serum inoculated with Saline (Negative Control): serum of saline-inoculated mice; for Reaction with pool of peptides, Mouse 1 serum / Reaction with pool of peptides, Mouse 2 serum / Reaction with pool of peptides, Mouse 3 serum: pool of peptides as antigen; for Reaction with pool of peptides, Mouse 1 serum: serum of mouse 1 inoculated with the labelled peptide; for Reaction with pool of peptides, Mouse 2 serum: serum of mouse 2 inoculated with the labelled peptide; for Reaction with pool of peptides, Mouse 3 serum: serum of mouse 3 inoculated with the labelled peptide; for Dot-ELISA reaction of mouse sera inoculated with the peptide pool: pool of all 8 hybrid peptides
Method: (§1) The immunogenicity of each peptide was checked immunizing BALB/c mice, approximately six weeks old, with […] of protein (Machado et al., 1994). The mice were divided into groups of three animals each. The groups were: P28, P41, P42, P44, P50, P51, P53, P54, Pool (mice inoculated with a pool of peptides, in the case with all 8 hybrid peptides) and negative control group. For inoculations, the peptides were emulsified in Freund's complete adjuvant (Sigma) and inoculated intramuscularly in the quadriceps. Two further immunizations, on the 14th and 28th day after inoculation, were performed using incomplete Freund's adjuvant (Sigma). Each inoculation was carried out using 10 μg/mL of each peptide. Negative control mice were inoculated with sterile saline in place of the peptides and also emulsified in adjuvant. Blood samples were collected by intracardiac puncture on the 10th day after the last immunization and the sera obtained were stored at −20° C. until evaluated by Dot-ELISA and Western-blotting assays.
(§2) Synthetic peptides were used as antigen in the Dot-ELISA technique to verify their ability to react with specific antibodies present in the serum of BALB/c mice, as well as in calf serum, all immunized. The technique was performed as described by Machado et al. (1994), with minor modifications. Briefly, small nitrocellulose discs were cut using a paper punch and each disc arranged in a flat bottom 24-well culture plate well. 4 μg/mL of each synthetic peptide alone, as well as the peptide pool, were deposited on each disc. The discs were dried at room temperature and then blocked for 12 hours at room temperature with […] TBS buffer (0.1 M Tris, 0.1 M NaCl and 0.5% Tween 20; TBS-Tween 20), plus 5% skim milk powder. Test sera were diluted 1:25 (mice and calf) in TBS-Tween 20 containing 5% skim milk powder and incubated for 120 minutes at room temperature and under constant stirring. Then the discs were subjected to two washes with TBS-Tween 20 plus 5% skim milk powder and one wash with TBS-Tween 20 (5 min interval between each wash). To each mouse serum disc was added the alkaline phosphate-coupled anti-mouse conjugate (anti-mouse IgG goat IgG, Sigma A-3562) diluted 1:30,000 in TBS-Tween 20 plus 5% of skim milk powder. To calf serum-containing discs, it was added alkaline phosphate-coupled anti-bovine conjugate (anti-cattle IgG rabbit IgG, Sigma A-0705) diluted 1:30,000 in TBS-Tween 20, plus 5% skim milk powder. After one hour incubation with the appropriate conjugates, washes were followed as in the previous step.

mouse serum = assay: Western blotting, synthetic peptides with serum of inoculated mice; details: in vivo
Method: as §1
(§3) Samples of synthetic peptides were analyzed by Western blotting. To this end, initially, the samples were submitted to polyacrylamide gel electrophoresis under denaturing conditions, according to the technique recommended by Laemmli (1970). Based on the sample volume 2× concentrated sample buffer (250 mM Tris-HCl pH 6.8, 40% glycerol, 8% SDS, 20% β-mercaptoethanol and 0.008% bromophenol blue) was added. The samples were homogenized, incubated for 5 minutes at 100° C. and applied to the gel. The separation gel was prepared at a concentration of 12% polyacrylamide in buffer (1.875 M Tris, pH 8.8 and 1% SDS) and 5% polyacrylamide for buffer packaging gel (1.875 M Tris, pH 6.8 and 0.5% SDS). Electrophoresis was performed in Tris-Glycine Running Buffer (50 mM Tris, pH 8.6, 1.92 M Glycine and 1% SDS) at 100 V for up to 3 hours and 30 minutes at 0° C. in the Mini-Protean II system (Bio-Rad).
Synthetic peptides processed on the polyacrylamide gel (SDS-PAGE) were transferred to the nitrocellulose membrane for analysis by Wester blot (TOWBIN et al., 1979). The nitrocellulose membrane (Merck) was previously incubated in ice cold transfer buffer (0.58% Tris Base pH 8.3, 20% methanol and 0.29% glycine). For this, the membrane was placed in the “Mini Trans-Blot” (Bio-Rad) electrotransfer system containing the same buffer and the transfer was performed at 100 V for 90 minutes. The membrane was incubated in TBS-Tween (10 mM Tris-HCl pH 7.5; 150 mM NaCl, 0.05% Tween-20) plus 5% skim milk powder for 12 hours at 4° C. under low agitation, for saturation of non-specific binding sites. The membrane was then incubated with each serum from each mouse alone or incubated with calf serum for 2 hours at room temperature under slow stirring. […]

calf serum [1] = assay: Western blotting, synthetic peptides with calf serum; type: in vivo; details: label = antigen on blot
Excerpt: (§4) The immunogenicity of the synthetic peptides was verified by immunizing a previously tested calf with negative results for Anaplasma marginale, Babesia bovis and Babesia bigemina by serology and PCR. For inoculations, a peptide pool (SEQ ID NO: 20, SEQ ID NO: 21, SEQ ID NO: 23, SEQ ID NO: 25 and SEQ ID NO: 26) was emulsified in Freund's complete adjuvant (Sigma) and, inoculated intramuscularly in the quadriceps. Two further immunizations, on the 14th and 28th day after inoculation, were performed using incomplete Freund's adjuvant (Sigma). Each inoculation was done using 100 μg/mL of each peptide. Blood samples were collected by jugular puncture on the 10th day after the last immunization and the sera obtained were stored at −20° C. until evaluated by Dot-ELISA and Western-blotting assays.
as §3
Synthetic peptides processed on the polyacrylamide gel (SDS-PAGE) were transferred to the nitrocellulose membrane for analysis by Wester blot (TOWBIN et al., 1979). The nitrocellulose membrane (Merck) was previously incubated in ice cold transfer buffer (0.58% Tris Base pH 8.3, 20% methanol and 0.29% glycine). For this, the membrane was placed in the “Mini Trans-Blot” (Bio-Rad) electrotransfer system containing the same buffer and the transfer was performed at 100 V for 90 minutes. The membrane was incubated in TBS-Tween (10 mM Tris-HCl pH 7.5; 150 mM NaCl, 0.05% Tween-20) plus 5% skim milk powder for 12 hours at 4° C. under low agitation, for saturation of non-specific binding sites. The membrane was then incubated with each serum from each mouse alone or incubated with calf serum for 2 hours at room temperature under slow stirring. It was then subjected to three consecutive 10-minute washes with the same solution under slow agitation. […]

calf serum [2] = assay: Dot-ELISA, synthetic peptides with serum of calf immunized with peptide pool; type: in vivo; set-up: key to Peptide Reactivity, Calf serum inoculated with pool: — = Did not react; X = Reacted; details: for Peptide Reactivity, Calf serum inoculated with pool: Dot-ELISA, peptide as antigen, calf inoculated with pool SEQ ID NO: 20, 21, 23, 25, 26; for Dot-ELISA reaction of calf serum inoculated with the peptide pool with the antigen: label = antigen on disc
Excerpt: as §4, §2

[3] = test system: bovine serum serologically positive / negative / vaccinated for A. marginale; assay: Dot-ELISA, synthetic peptides with sera of cattle serologically positive, negative or vaccinated for A. marginale; type: binding; details: peptide as antigen
Method: as §2

Row | Sequence | Peptide Reactivity, Mice serum inoculated with pool (serum of BALB/c mice) | Peptide Reactivity, Mice serum inoculated with isolated peptides 1 (serum of BALB/c mice) | Peptide Reactivity, Mice serum inoculated with isolated peptides 2 (serum of BALB/c mice) | Peptide Reactivity, Mice serum inoculated with isolated peptides 3 (serum of BALB/c mice) | Peptide Reactivity, Mice serum inoculated with Saline (Negative Control) (serum of BALB/c mice) | Reaction with pool of peptides, Mouse 1 serum (serum of BALB/c mice) | Reaction with pool of peptides, Mouse 2 serum (serum of BALB/c mice) | Reaction with pool of peptides, Mouse 3 serum (serum of BALB/c mice) | Dot-ELISA reaction of sera from mice inoculated with hybrid peptides alone (serum of BALB/c mice) | Western blotting reaction of serum of mice inoculated with synthetic peptide (mouse serum) | Western blotting reactivity of calf serum inoculated with the peptide pool (calf serum [1]) | Peptide Reactivity, Calf serum inoculated with pool (calf serum [2]) | Dot-ELISA reaction of calf serum inoculated with the peptide pool with the antigen (calf serum [2]) | Reaction of sera from serologically positive cattle for A. marginale with synthetic peptide [3] | Reaction of sera from vaccinated cattle for A. marginale with synthetic peptide [3] | Dot-ELISA reaction of mouse sera inoculated with the peptide pool (serum of BALB/c mice)
1 | GASTDDAAAAAKIVAMAYGRGGGGGASSVDALTATKLVAAALGH (Synthetic hybrid peptide) [P44] | — | X | X | X | — | — | — | — | reacted | reacted | showed reactivity | X | reacted | reacted | reacted | 
2 | LAESTEGNLEEVWILGKGGGGFSESMKALIKKYVDTSKPTIYVDQGTVMKV (Synthetic hybrid peptide) [P51] | X | — | X | X | — | — | X | — | reacted |  | showed reactivity | X | reacted |  |  | reacted
3 | SECVSLQPTDSSSASGQQQEGGGGLQGHMIDAVLETAINSDIPGVLRAIVSRDV (Synthetic hybrid peptide) [P54] | X | X | X | X | — | — | X | — | reacted | reacted |  | — |  | reacted |  | reacted
4 | SKVASVEYILAARGGGGQVDRLANALGK (Synthetic hybrid peptide) [P28] | — | — | — | — | — | — | X | — |  |  |  | — |  | reacted | reacted | reacted
5 | SKVASVEYILAARGGGGQVDRLANALGKGGGGAMGDSVHWKVKPVDNKLFIMP (Synthetic hybrid peptide) [P53] | X | — | — | — | — | X | X | X |  | reacted | showed reactivity | X | reacted | reacted |  | reacted
6 | SSVSSQSDQASTSSQLGGGGAMGDSVHWKVKPVDNKLFIMP (Synthetic hybrid peptide) [P41] | — | — | — | — | — | — | — | — |  |  | showed reactivity | X | reacted |  |  | 
